Earlier results on two compounds are cited in PMC9540525 (Cancer, 2022).

For data set [1] the following is noted: phase 1 dose-escalation study in R/R SCLC; cited from earlier work.
For data set [2] the following is noted: phase 1 dose-escalation study in R/R SCLC; cited from earlier work. This is another data set of the same source.
For data set [3] the following is noted: first-in-human study; cited from earlier work.

`O=C(O)c1ccc(CN2CCC(CN[C@@H]3C[C@H]3c3ccccc3)CC2)cc1` [GSK2879552]: the pharmacokinetic properties result in data set [1] was “favorable pharmacokinetic properties were demonstrated”. The “rate of AEs” value in data set [2] is “the rate of AEs, especially serious AEs, was high”.

With `N[C@H]1CC[C@H](N[C@@H]2C[C@H]2c2ccccc2)CC1` [iadademstat], in data set [3], the toxicities entry was “caused toxicities, including thrombocytopenia, anemia, and febrile neutropenia, as well as deaths possibly related to iadademstat”.
